Data reported in patent publication US4855308A, “Method of treating senile cognitive decline with N'-substituted aminopyridine adrenergic agents” (Warner-Lambert Company, priority 1987, dated 1989).
Read-outs that look alike come from different tables or passages of the source.

Experiments:
[1] = tested on: scopolamine-induced swimming hyperactivity; experiment: scopolamine induced swimming test (SIS), reversal of scopolamine-induced swimming hyperactivity; type: in vivo, laboratory rats (b65); mice (b66); conditions: for inhibition in vivo at 0.32 mg/kg / inhibition in vivo at 3.2 mg/kg / inhibition in vivo at 32 mg/kg: Rattus norvegicus; for inhibition in vivo at 0.32 mg/kg: read-out: Percent Reversal Swimming Hyperactivity, Dose 0.32 mg/kg, SC; for inhibition in vivo at 3.2 mg/kg: read-out: Percent Reversal Swimming Hyperactivity, Dose 3.2 mg/kg, SC; for inhibition in vivo at 32 mg/kg: read-out: Percent Reversal Swimming Hyperactivity, Dose 32 mg/kg, SC; for reversal of scopolamine swimming hyperactivity: scopolamine-treated rats
Description: The biological activity of compounds of the present invention was evaluated using the "scopolamine induced swimming test" (SIS). This screen evaluated the ability of the test compounds to reverse the hyperactive swimming behavior of laboratory rats given scopolamine. in this test, untreated rats will generally swim between 20 to 30 meters during a five-minute test period. […] We have discovered unexpectedly that α2-adrenergic antagonists including the compounds in this application also reverse this swimming hyperactivity, perhaps through indirect stimulation of the cholinergic system.
SIS values are reported as the percent reversal of scopolamine, and are determined as follows: [formula] where U, SDT, and ST represent, respectively, the mean activity level in meters swum of untreated, scopolamine-and-drug-treated, and scopolamine-treated mice.

[2] = molecular target: α1-adrenergic binding site; experiment: binding at the α1-adrenergic binding site; conditions: read-out: α1 IC50 (Nanomolar)
Description: (§1) The binding of representative compounds of this invention at the α1-adrenergic binding site was measured using the protocol described by Hornung, R., et al, Archiv. Pharm., 308:223 (1979). Similarly, the binding at the α2:adrenergic binding site was measured using the method of Rouot, B. R., et al, Life Sci., 25: 769 (1979). The data are presented in Table 2 and illustrate the α2 selectivity of the compounds.

[3] = tested on: α2-adrenergic binding site; experiment: binding at the α2-adrenergic binding site; conditions: for α1/α2: ratio of IC50 α1/α2; for IC50: read-out: α2 IC50 (Nanomolar)
Description: The α2 binding sites are presynaptic and are involved in the control of release of norepinephrine. A compound which acts selectively as an α2-adrenergic antagonist acts to increase noradrenergic activity. Such increases in noradrenergic activity are related to improved cognitive function in animals.
as §1

[4] = tested on: spatial working memory in hippocamally-deficient mice; experiment: Mouse Water Maze (MWM) test; type: in vivo, laboratory mice; conditions: read-out: minimal effective dose (MED)
Description: This compound was tested in the Mouse Water Maze (MWM) test which is a direct test of spatial cognitive skill in laboratory mice. This test, which is described in Morris, R., J. Neurosci. Meth., 11: 47-60 (1984), measures the effect of a test drug on spatial working memory in hippocamally-deficient mice.

[5] = 0.32 mg/kg, SC, vs scopolamine 0.1 mg/kg, five-minute test
[6] = 3.2 mg/kg, SC, vs scopolamine 0.1 mg/kg, five-minute test
[7] = 32 mg/kg, SC, vs scopolamine 0.1 mg/kg, five-minute test

Row | Compound | inhibition in vivo at 0.32 mg/kg [1, 5] [%] | inhibition in vivo at 3.2 mg/kg [1, 6] [%] | inhibition in vivo at 32 mg/kg [1, 7] [%] | further results
1 | c1ccc(Nc2ccncc2)cc1 [Compound 1, N-Phenyl-4-pyridinamine] | 27 | 22 | 57 | 
2 | Cc1cccc(Nc2ccncc2)c1 [Compound 2, N-(3-Methylphenyl)-4-pyridinamine] | 52 | 36 | 66 | 
3 | Cc1ccc(Nc2ccncc2)cc1 [Compound 3, N-(4-Methylphenyl)-4-pyridinamine] | 10 | 25 | 100 | IC50 [2]: 1.6 µM; α1/α2 [3]: 43; IC50 [3]: 37 nM
4 | Clc1cccc(Nc2ccncc2)c1 [Compound 4, N-(3-Chlorophenyl)-4-pyridinamine] | 0 | 27 | 75 | IC50 [2]: 7.5 µM; selectivity for binding at the α2-adrenergic site ([3]; from data in Table 2): high degree of selectivity for binding at the α2-adrenergic site; α1/α2 [3]: 56; IC50 [3]: 133 nM; minimal effective dose [4]: 3.2 mg/kg
5 | FC(F)(F)c1cccc(Nc2ccncc2)c1 [Compound 5, N-[3-(Trifluoromethyl)phenyl]-4-pyridin-amine] | 0 | 0 | 57 | 
6 | FC(F)(F)c1ccc(Nc2ccncc2)cc1 [Compound 6, N-[4-(Trifluoromethyl)phenyl]-4-pyridin-amine] | 0 | 16 | 55 | 
7 | COc1cccc(Nc2ccncc2)c1 [Compound 7, N-(3-Methoxyphenyl)-4-pyridinamine] | 23 | 62 | 31 | 
8 | O=[N+]([O-])c1cccc(Nc2ccncc2)c1 [Compound 8, N-(3-Nitrophenyl)-4-pyridinamine] | 40 | 39 | 70 | 
9 | Nc1ccccc1Nc1ccncc1 [Compound 9, N-4-Pyridinyl-1,2-benzenediamine] | 15 | 18 | 72 | 
10 | Nc1cccc(Nc2ccncc2)c1 [Compound 10, N-4-Pyridinyl-1,3-benzenediamine] | 47 | 0 | 41 | 
11 | CN(C)c1cccc(Nc2ccncc2)c1 [Compound 11, N,N-Dimethyl-N'-4-pyridinyl-1,3-benzene-diamine] | 15 | 4 | 61 | 
12 | COC(=O)c1cccc(Nc2ccncc2)c1 [Compound 12, 3-(4-Pyridinylamino)benzoic acid, methyl ester] | 15 | 0 | 8 | 
13 | Clc1ccc(Nc2ccncc2)c(Cl)c1 [Compound 13, N-(2,4-Dichlorophenyl)-4-pyridinamine] | 0 | 24 | 0 | 
14 | Clc1ccc(Nc2ccncc2)cc1Cl [Compound 14, N-(3,4-Dichlorophenyl)-4-pyridinamine] | 31 | 37 | 64 | IC50 [2]: > 1 µM; α1/α2 [3]: > 8.5; IC50 [3]: 118 nM
15 | O=[N+]([O-])c1cc(Nc2ccncc2)ccc1Cl [Compound 15, N-(4-Chloro-3-nitrophenyl)-4-pyridinamine] | 26 | 0 | 0 | 
16 | Cc1ccc(Nc2ccncc2)c([N+](=O)[O-])c1 [Compound 16, N-(4-Methyl-2-nitrophenyl)-4-pyridinamine] | 0 | 3 | 14 | 
17 | CC(=O)N(c1ccncc1)c1ccc(C)cc1 [Compound 17, N-(4-Methylphenyl)-N-4-pyridinylacetamide] | 35 | 56 | 21 | IC50 [2]: > 10 µM; α1/α2 [3]: > 1.9; IC50 [3]: 5400 nM
18 | CC(=O)N(c1ccncc1)c1ccc(Cl)c(Cl)c1 [Compound 18, N-(3,4-Dichlorophenyl)-N-4-pyridinylacet-amide] | 33 | 34 | 30 | 
19 | COC(=O)N(c1ccncc1)c1ccc(C)cc1 [Compound 19, (4-Methylphenyl)-4-pyridinylcarbamic acid, methyl ester] |  |  |  | inhibition in vivo at 0.32 mg/kg ([1]; sc): 36%; inhibition in vivo at 3.2 mg/kg ([1]; sc): 20%; inhibition in vivo at 32 mg/kg ([1]; sc): 17%
20 | COC(=O)N(c1ccncc1)c1ccc(Cl)c(Cl)c1 [Compound 20, (3,4-Dichlorophenyl)-4-pyridinylcarbamic acid, methyl ester] |  |  |  | inhibition in vivo at 0.32 mg/kg ([1]; sc): 6%; inhibition in vivo at 3.2 mg/kg ([1]; sc): 0%; inhibition in vivo at 32 mg/kg ([1]; sc): 9%
21 | COC(=O)C1=CCCN(C)C1 [arecoline, reference compound] |  |  |  | reversal of scopolamine swimming hyperactivity [1]: can be reversed
22 | CN(C)C(=O)Oc1cccc([N+](C)(C)C)c1 [neostigmine, reference compound] |  |  |  | reversal of scopolamine swimming hyperactivity [1]: does not reverse the effect of scopolamine
23 | CNC(=O)Oc1ccc2c(c1)[C@]1(C)CCN(C)[C@@H]1N2C [physostigmine, reference compound] |  |  |  | reversal of scopolamine swimming hyperactivity [1]: can be reversed
24 | C[N+]1(C)C2CC(OC(=O)C(CO)c3ccccc3)CC1C1OC12 (stereo not shown) [scopolamine methyl nitrate, reference compound] |  |  |  | behavioral changes ([1]; same conditions as scopolamine): does not produce any behavioral changes
25 | CN1[C@@H]2C[C@@H](OC(=O)[C@H](CO)c3ccccc3)C[C@H]1[C@@H]1O[C@@H]12 [scopolamine, reference compound] |  |  |  | increase of swimming distances above baseline values ([1]; scopolamine 0.1 mg/kg, five-minute test period, rats): 75-125%
